In assay [1] the test system is Ross x Hubbard HyY broiler chicks. The experiment in a line: Example 1: efficacy of AQ applied to the litter used in broiler chicken houses (42 day performance). It counts as in vivo. The conditions noted are these: AQ applied to the litter at the 1.0× dose; full dose and half dose of coccidiostat in the feed. The source says: A total of 3456 one-day-old straight run Ross x Hubbard HyY broiler chicks was used in the experiment. There were 6 treatments with 8 replicates per treatment and 72 birds per replicate. The individual pen was the experimental unit. The experimental treatments used follows:
1. Negative Control =No coccidiostat or growth promoting antibiotics and no litter treatment
2. Positive Control=BioCox® (full dose)+BMD®+3-Nitro and no litter treatment
3. BioCox® (full dose)+BMD®+3-Nitro+0.5× litter treatment*
4. BioCox® (full dose)+BMD®+3-Nitro+1.0× AQ litter treatment**
5. BioCox® (half dose)+BMD®+3-Nitro+0.5× AQ litter treatment
6. BioCox® (half dose)+BMD®+3-Nitro+1.0× AQ litter treatment
*0.5× Solution of AQ−⅛ Gallon/44,000sqft
**1.0× Solution of AQ−¼ Gallon/44,000sqfi

For assay [2] the test system is unchanged. The experiment in a line: Example 2: efficacy of AQ applied to the litter used in broiler chicken houses, dose titration (42 day performance). Type of assay: in vivo. An excerpt: The term “weight adjusted feed efficiency” is based upon a feed efficiency corrected to a standard weight called the “weight adjusted feed efficiency” (WAFE). Feed efficiency can be adjusted to a standard weight of 2.00 kg. For every 31.78 grams difference in weight, the feed efficiency can be adjusted by 0.01. For example:
(§1) A total of 6912 one-day-old straight run Ross x Hubbard HyY broiler chicks was used in the experiment. There were 12 treatments with 8 replicates per treatment and 72 birds per replicate. The individual pen was the experimental unit. The experimental treatments used were as follows:
1. Negative Control—No coccidiostat or growth promoting antibiotics—No litter treatment
4. No litter treatment—BioCox (half dose)
3. 4× AQ litter treatment—No feed additives
4. 4× AQ litter treatment—BioCox (half dose)
5. 10.0× AQ litter treatment—No feed additives
6. 4.0× AQ litter treatment+BioCox (low dose)+BMD+3-Nitro
7. 4.0× AQ litter treatment BioCox (low dose)+BMD+3-Nitro
8. 10× AQ litter treatment−BioCox (half dose)
9. Positive Control BioCox (full dose)+BMD+3-Nitro
10. 4× AQ litter treatment−BioCox (full dose)+BMD+3-Nitro
11. 10× AQ litter treatment−BioCox (half dose)+BMD+3-Nitro
12. 10× AQ litter treatment−BioCox (full dose)+BMD+3-Nitro.
(§2) 4× Solution of AQ−1 Gallon/44,000sqft×4.2 ml per 48sqft (one pen)

In assay [3] the test system is coccidia. The experiment in a line: Example 2: intestinal lesion scores (intestinal coccidia score). It counts as in vivo, broiler chicken. To be noted: 14 day data; 10× or 4× AQ dose on litter combined with typically used poultry diets. On the procedure:
as §1, §2
This means that the lesion score difference was greater than 1 unit (scoring range of 0-4).

Setting [4] is: 10× AQ dose on litter combined with typically used poultry diets.
Setting [5] is: 10× AQ dose on litter, diet contained no coccidiostat or antibiotic feed additive.

On to `O=C1c2ccccc2C(=O)c2ccccc21` [AQ, anthraquinone], for which the “effect on feed efficiency (conclusion)” value in assay [1] is given as “improvement in feed efficiency”. In addition, in assay [2] (setting [4]), the “feed efficiency compared with the positive control (conclusion)” value is listed as “significantly improved (p<0.05) over the positive control” and the “weight gain compared with the positive control (conclusion)” value is “significantly improved (p<0.05) over the positive control”. Also, in assay [2] (setting [5]), the “feed efficiency compared with the negative control (conclusion)” value is “significant difference between this treatment and the negative control”; the “feed efficiency compared with the positive control (conclusion)” value is “no difference from the positive control”. Moreover, the “effect of addition of AQ to the litter on weight gain (conclusion)” value in assay [2] (dose titration study) is “tends to improve weight gain numerically”. In addition, in assay [3], the “intestinal coccidia score compared with the positive and negative control (conclusion)” value is “improved significantly (p<0.05) over the positive and negative control”.

The values above are taken from US6436423B1, “Product and method for improving avian health” (Arkion Life Sciences, priority 1998, dated 2002).
